Experimental data as given in US20110076318A1, “RETINOID-CONTAINING SUSTAINED RELEASE INTRAOCULAR IMPLANTS AND RELATED MATTERS” (Allergan, Inc., priority 2004, published 2011).
Where two headings read alike, the source gives them in different places.

Legend:
photoreceptors = assay: Rhodopsin mutant transgenic rat models of retinal degeneration; format: in vivo, Transgenic S334ter rats; details: i.p., S334ter line 3 and line 4
Experimental: The objective of this study was to determine the efficacy of various retinoids in preventing retinal damage or improving retinal survival in rhodopsin mutant transgenic rat models of retinal degeneration. The overall goal of the research was to investigate potential photoreceptor survival in mutant rhodopsin transgenic rats using RAR α, RAR β γ, and RXR retinoid agonists.
The experimental design was straightforward. A compound was injected daily to line 3 and every two days for line 4 animals (i.p.) for a given period and animals were sacrificed at the end by CO2 overdose followed immediately by vascular perfusion of mixed aldehydes. Two litters of rats were used:
1. Transgenic S334ter-3 rats. Line 3 bears a rhodopsin mutation S334ter. […] Injection of a compound will be given daily from PD 6 (post-delivery day 6) to PD 20.
2. Transgenic S334ter-4 rats. Line 4 bears a rhodopsin mutation S334ter. Animals of this line experience a 80% loss of photoreceptors by 60 days after birth. The ONL is reduced to one row of nuclei. Injection of a compound will be given every other day from PD 25 to PD 60.
For the line 3 animals, treatment started at PD 6 and the endpoint was PD 20. For the line 4, injection began at PD 25 and ended at PD60 when eyes were harvested. Eyes were embedded in an Epon/Araldite mixture for sectioning at 1 μm thickness along the vertical meridian. Protection of photoreceptors was be evaluated by counting the rows of nuclei in the outer nuclear layer.
The outcome was a measure of retinal outer layer thickness, and cytology over an 8 week period. Compounds included the retinoid agonists tazarotene (RAR β γ), AGN 195183 (RAR α) and AGN 194204 (RXR). […] This is a fairly harsh model and as such the modest improvement by tazarotene is quite significant.

PVR = details: orally administered, retrospective study; cited from earlier work
[1] = tested on: traction retinal detachment (PVR); details: cited from earlier work
[2] = tested on: PVR induced by human RPE cells; assay: PVR model with retinoid implants, Fastenberg scale; format: in vivo; details: at 28 days; 10% loaded PLA/PLGA implants, intravitreal
Excerpt: PLA and PLGA implants 1.5 mm in diameter and 3 mm in length were fabricated by extrusion of the polymer drug blend. Tazarotenic acid (the free acid of Tazarotene) Tazarotene and 13-cis-retinoic acid were loaded into the implants at 10% concentrations. Briefly, pigmented rabbits were vitrectomized followed by intravitreal injection of 500,000 human RPE cells. After injection of the RPE cells the retinoid implants were placed into the vitreous and anchored to the sclera with the suture used to close the sclerotomy.
The eyes were examined weekly for 4 weeks. Severity of PVR was graded based on the Fastenberg scale. At 4 weeks gross pathology and limited histopathology were conducted.

RPE proliferation = details: biphasic, read-out: IC50, prevention of RPE proliferation in-vitro (biphasic), cited from earlier work
[3] = cited from earlier work
[4] = Plasma concentrations after topical and oral dosing of tazarotene; format: in vivo, patients; details: for Cmax: human; for Cmax / TAZAROTENIC ACID Ctrough: plasma
Experimental: […] For the most part tazarotene is not observed in the plasma after topical or oral administration. Facile hydrolysis by pre-systemic metabolism rapidly generates the free acid. […] It is important to note that these are plasma concentrations and the eye plasma distribution ratio is 0.02. Over 90% of all patients in the phase 3 clinical trials had concentrations of the parent compound, tazarotene, <1 ng/mL with the highest being 6 ng/mL.
(§1) Oral delivery of 1.1 mg and 6 mg multiple doses led to 28.9 ng/mL and 227 ng/ml peak levels with a 2.56 ng/mL trough. This corresponds to a maximum possible 4 ng/mL ocular level for the highest dose. FIG. 11 depicts the tissue distribution of tazarotenic acid. The eyes show a 2% tissue/plasma ration in the rat. It should be noted that tazarotenic acid is 99% protein bound and distribution is limited to unbound drug.

[5] = Tissue-to-plasma distribution after daily topical 14C-tazarotene; format: in vivo; details: rat
Experimental: FIG. 11 is a graph illustrating tissue-to-plasma concentration ratios of after twenty-one days of daily topical application of 14C-tazarotene to the skin of rats.
as §1

[6] = Ocular disposition of tazarotene and tazarotenic acid after intravitreal and subconjunctival dosing; format: in vivo, albino rabbits
Experimental: General disposition of intraocular and subconjunctivally administered tazarotene and tazarotenic acid was assessed. Briefly, albino rabbits were dosed via intraocular injection with 1.25 μg of tazarotene or tazarotenic acid. Injection was made mid-vitreous. After dosing the vitreous, retina and aqueous humor concentrations of tazarotene and tazarotenic acid were determined at 0.5, 1, 2, 4, 8, 12 and 24 hours post dosing. […] Additionally, the tazarotenic acid concentrations asymptotically approach approximately 10 ng/mL.
Tazarotene was also dosed in the subconjunctival space. Three dosage forms were evaluated: A tazarotene aqueous suspension (1 mg), a tazarotene subconjunctival olive oil solution (1 mg), and an tazarotene poly (lactide-co-glycolide) microsphere suspension. After dosing, the vitreous, retina and aqueous humor concentrations of tazarotene and tazarotenic acid were determined at 2, 8, 24, 48, 96, 168 and 336 hours post dosing. It was observed that subconjunctival administration achieved significant levels of tazarotene and tazarotenic acid in the ocular tissues.
Briefly, albino rabbits were dosed via intraocular injection with 1.25 μg of tazarotene or tazarotenic acid. Injection was made mid-vitreous. After dosing the vitreous, retina and aqueous humor concentrations of tazarotene and tazarotenic acid were determined at 0.5, 1, 2, 4, 8, 12 and 24 hours post dosing. […]

[7] = Protein binding of tazarotenic acid; format: in vitro ADME
[8] = Five to ten μg in a silicone oil tamponade

CC(/C=C/[C@@H]1C[C@]1(C)c1ccc2c(c1)C(C)(C)CCC2(C)C)=C\C(=O)O [AGN 194204]
protection of photoreceptors (outer nuclear layer) (photoreceptors): Tazarotene was the only compound to show efficacy

CC1(C)CCC(C)(C)c2c1cc(C(=O)Nc1cc(F)c(C(=O)O)c(F)c1)c(O)c2Cl [AGN 195183]
protection of photoreceptors (outer nuclear layer) (photoreceptors): Tazarotene was the only compound to show efficacy

CC1=C(/C=C/C(C)=C/C=C/C(C)=C\C(=O)O)C(C)(C)CCC1 [Isotretinoin, 13-cis-retinoic acid]
effect on PVR and retinal attachment (PVR): effective at decreasing PVR and increasing the rate of retinal attachment
traction retinal detachment in animal model of PVR [1, 8]: effectively prevent traction retinal detachment
eyes progressed to traction retinal detachment [2]: 22%

CC1=C(/C=C/C(C)=C/C=C/C(C)=C/C(=O)O)C(C)(C)CCC1 [RA, All trans-retinoic acid]
IC50 (RPE proliferation; first value): 0.01 nM
IC50 (RPE proliferation; second value): 17 nM
ocular toxicity by histopathology and ophthalmoscopic examination ([3]; five to ten μg in silicone oil): no ocular toxicity
concentration well tolerated with no ERG changes ([3]; in vivo): up to 15 μg/mL
traction retinal detachment in animal model of PVR [1, 8]: effectively prevent traction retinal detachment
traction retinal detachment in animal model of PVR ([1]; Ten and 15 μg in 1-% hyaluronic acid and BSS): reduced traction retinal detachment

CC1(C)CCSc2ccc(C#Cc3ccc(C(=O)O)cn3)cc21 [Tazarotenic Acid, 4,4-dimethyl-6-[2′-(5″-carboxy-2″-pyridyl)-ethynyl]-thiochroman]
maximum possible ocular level ([4]; highest oral dose (6 mg)): ≤ 4 ng/mL
Cmax ([4]; po, 1.1 mg/Day, Oral 1.1 mg/Day, read-out: TAZAROTENIC ACID Cmax): 28.9 ng/mL
Cmax ([4]; po, 3 mg/Day, Oral 3.0 mg/Day, read-out: TAZAROTENIC ACID Cmax): 81.6 ng/mL
Cmax ([4]; po, 6 mg/Day, Oral 6.0 mg/Day, read-out: TAZAROTENIC ACID Cmax): 227 ng/mL
Cmax ([4]; topical or ocular, 0.1 % gel, Topical Gel 0.1% 2% BSA, read-out: TAZAROTENIC ACID Cmax): 0.241 ng/mL
Cmax ([4]; topical or ocular, 0.1 % gel, Topical Gel 0.1% 7% BSA, read-out: TAZAROTENIC ACID Cmax): 0.83 ng/mL
Cmax ([4]; topical or ocular, 0.1 % gel, Topical Gel 0.1% 15% BSA, read-out: TAZAROTENIC ACID Cmax): 4.8 ng/mL
Cmax ([4]; topical or ocular, 0.1 % gel, Topical Gel 0.1% 20% BSA, read-out: TAZAROTENIC ACID Cmax): 12 ng/mL
Cmax ([4]; topical or ocular, 0.1 % gel, Topical Gel 0.1% Phase 3, in 90%, read-out: TAZAROTENIC ACID Cmax): < 1 ng/mL
Cmax ([4]; topical or ocular, range over topical studies, read-out: Tazarotenic acid plasma concentrations (Cmax) from topical administration): 0.25 to 12 ng/mL
TAZAROTENIC ACID Ctrough ([4]; Oral 6.0 mg/Day, listed as TAZAROTENIC ACID): Ctrough 2.56 ng/mL
TAZAROTENIC ACID Ctrough ([4]; Oral 6.0 mg/Day, listed as tazarotenic acid): 2.56 ng/mL
eyes tissue/plasma ratio ([5]; FIG. 11): 2%
Kp at 21 days ([5]; eye, topical, read-out: eye plasma distribution ratio): 0.02
maximal vitreous concentration of tazarotenic acid (asymptote) ([6]; after intraocular injection of 1.25 μg tazarotene): approximately 10 ng/mL
half-life ([6]; albino, rabbit, vitreous, other: intraocular injection, mid-vitreous, 1.25 ug, midvitreous dosing of 1.25 μg tazarotenic acid, read-out: vitreous elimination half-life (converted)): 254 min
protein bound [7]: 99%
eyes progressed to traction retinal detachment [2]: 12%
